Experimental data from ChEMBL document CHEMBL1201862, “PubChem BioAssay data set” (2004).
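Tested at 5 concentrations; 48 h exposure; 96-well plates; endpoints linearly interpolated, else capped at highest concentration. GI50: concentration for 50% inhibition of growth.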 Calls of active or inactive are those of the source. No stated cut-off is given here; in the data, active = GI50 up to about 1.1 µM and inactive = higher.

Key:
Experiment in all cases: NCI-60 cell line screen, 48 h
DU-145 = tested on: DU-145
EKVX = tested on: EKVX
HCC 2998 = tested on: HCC 2998
HL-60 = tested on: HL-60
HOP-92 = tested on: HOP-92
IGROV-1 = tested on: IGROV-1
LOX IMVI = tested on: LOX IMVI
MDA-MB-435 = tested on: MDA-MB-435
MOLT-4 = tested on: MOLT-4
NCI-H23 = tested on: NCI-H23
OVCAR-4 = tested on: OVCAR-4
OVCAR-8 = tested on: OVCAR-8
PC-3 = tested on: PC-3
RPMI-8226 = tested on: RPMI-8226
SK-MEL-2 = tested on: SK-MEL-2
TK-10 = tested on: TK-10
UACC-62 = tested on: UACC-62
UO-31 = tested on: UO-31
SF-295 = tested on: SF-295
SK-OV-3 = tested on: SK-OV-3

Measured: GI50

N/C1=C/C(=O)NC(=O)c2c(c3ccccc3oc2=O)C1
inactive: DU-145 > 100 µM | EKVX 46.7 µM | HCC 2998 > 100 µM | HL-60 > 100 µM | HOP-92 > 100 µM | IGROV-1 > 100 µM | LOX IMVI > 100 µM | MDA-MB-435 > 100 µM | MOLT-4 > 100 µM | NCI-H23 > 100 µM | OVCAR-4 > 100 µM | OVCAR-8 > 100 µM | PC-3 > 100 µM | RPMI-8226 62.8 µM | SK-MEL-2 > 100 µM | TK-10 > 100 µM | UACC-62 > 100 µM | UO-31 > 100 µM

CC[C@@]1(C)CCC2c3ccc(O)cc3CC[C@H]2C1C (some centres not stated)
inactive: DU-145 16.6 µM | EKVX 18.2 µM | HCC 2998 13.7 µM | HL-60 10.8 µM | HOP-92 6.85 µM | IGROV-1 20.8 µM | LOX IMVI 17 µM | MDA-MB-435 15.6 µM | MOLT-4 14.8 µM | NCI-H23 18 µM | OVCAR-4 19.4 µM | OVCAR-8 17.7 µM | PC-3 19.8 µM | RPMI-8226 19.4 µM | SF-295 18.8 µM | SK-MEL-2 18.6 µM | TK-10 19.1 µM | UACC-62 14.7 µM | UO-31 16.7 µM

CCc1cc2c(oc3cc(C)ccc32)c(=O)n1C
inactive: DU-145 > 10 µM | EKVX > 10 µM | HCC 2998 > 10 µM | HL-60 > 10 µM | HOP-92 > 10 µM | IGROV-1 > 10 µM | LOX IMVI > 10 µM | MDA-MB-435 > 10 µM | MOLT-4 > 10 µM | NCI-H23 > 10 µM | OVCAR-4 > 10 µM | OVCAR-8 > 10 µM | PC-3 > 10 µM | SF-295 > 10 µM | SK-MEL-2 > 10 µM | SK-OV-3 > 10 µM | TK-10 > 10 µM | UO-31 > 10 µM

COC1(OC)CC(CO)(CNc2nc(N)nc(Cl)c2/C=N\O)C1
inactive: DU-145 34.3 µM | EKVX 22.7 µM | HCC 2998 > 100 µM | HL-60 39.3 µM | HOP-92 13.6 µM | IGROV-1 21.3 µM | LOX IMVI 22.7 µM | MDA-MB-435 31.5 µM | MOLT-4 15.3 µM | NCI-H23 9.77 µM | OVCAR-4 29.5 µM | OVCAR-8 54.7 µM | PC-3 55.5 µM | RPMI-8226 13.6 µM | SF-295 33.3 µM | TK-10 25.9 µM | UO-31 39.2 µM
